Measurements reported in patent publication US9340559B2, “Proteasome inhibitor delanzomib for use in the treatment of lupus” (Cephalon, Inc., priority 2011, dated 2016).
Where two headings read alike, the source gives them in different places.

Test system: NZM mice
Type: in vivo, mouse

CC(C)C[C@H](NC(=O)[C@@H](NC(=O)c1cccc(-c2ccccc2)n1)[C@@H](C)O)B(O)O [COMPOUND A, [(1R)-1-[[(2S,3R)-3-hydroxy-2-[6-phenyl-pyridine-2-carbonyl)amino]-1-oxobutyl]amino]-3-methylbutylboronic acid]
p, serum IL-12p40/p70 concentration vs G5 Bortezomib 0.3 mg/kg 1× wk ip (G1 3 mg/kg 1× wk ip): NS (NS = not significant (p > 0.05))
p, serum IL-12p40/p70 concentration vs G6 Bortezomib 0.3 mg/kg 2× wk ip (G1 3 mg/kg 1× wk ip): NS (NS = not significant (p > 0.05))
p, serum IL-12p40/p70 concentration vs G7 CTX 50 mg/kg 1× wk ip (G1 3 mg/kg 1× wk ip): NS (NS = not significant (p > 0.05))
p, serum IL-12p40/p70 concentration vs G8 Dex 1.5 mg/kg 3× wk ip (G1 3 mg/kg 1× wk ip): NS (NS = not significant (p > 0.05))
p, serum IL-12p40/p70 concentration vs G9 Vehicle 1× wk ip (G1 3 mg/kg 1× wk ip): p < 0.001
p, serum IL-13 concentration vs G5 Bortezomib 0.3 mg/kg 1× wk ip (G1 3 mg/kg 1× wk ip): NS (NS = not significant (p > 0.05))
p, serum IL-13 concentration vs G6 Bortezomib 0.3 mg/kg 2× wk ip (G1 3 mg/kg 1× wk ip): NS (NS = not significant (p > 0.05))
p, serum IL-13 concentration vs G7 CTX 50 mg/kg 1× wk ip (G1 3 mg/kg 1× wk ip): p < 0.001
p, serum IL-13 concentration vs G8 Dex 1.5 mg/kg 3× wk ip (G1 3 mg/kg 1× wk ip): NS (NS = not significant (p > 0.05))
p, serum IL-13 concentration vs G9 Vehicle 1× wk ip (G1 3 mg/kg 1× wk ip): NS (NS = not significant (p > 0.05))
p, serum IL-17A concentration vs G5 Bortezomib 0.3 mg/kg 1× wk ip (G1 3 mg/kg 1× wk ip): NS (NS = not significant (p > 0.05))
p, serum IL-17A concentration vs G6 Bortezomib 0.3 mg/kg 2× wk ip (G1 3 mg/kg 1× wk ip): p < 0.01
p, serum IL-17A concentration vs G7 CTX 50 mg/kg 1× wk ip (G1 3 mg/kg 1× wk ip): p < 0.001
p, serum IL-17A concentration vs G8 Dex 1.5 mg/kg 3× wk ip (G1 3 mg/kg 1× wk ip): NS (NS = not significant (p > 0.05))
p, serum IL-17A concentration vs G9 Vehicle 1× wk ip (G1 3 mg/kg 1× wk ip): NS (NS = not significant (p > 0.05))
p, serum IP-10 concentration vs G5 Bortezomib 0.3 mg/kg 1× wk ip (G1 3 mg/kg 1× wk ip): NS (NS = not significant (p > 0.05))
p, serum IP-10 concentration vs G6 Bortezomib 0.3 mg/kg 2× wk ip (G1 3 mg/kg 1× wk ip): NS (NS = not significant (p > 0.05))
p, serum IP-10 concentration vs G7 CTX 50 mg/kg 1× wk ip (G1 3 mg/kg 1× wk ip): p < 0.001
p, serum IP-10 concentration vs G8 Dex 1.5 mg/kg 3× wk ip (G1 3 mg/kg 1× wk ip): NS (NS = not significant (p > 0.05))
p, serum IP-10 concentration vs G9 Vehicle 1× wk ip (G1 3 mg/kg 1× wk ip): NS (NS = not significant (p > 0.05))
p, serum MIG concentration vs G5 Bortezomib 0.3 mg/kg 1× wk ip (G1 3 mg/kg 1× wk ip): NS (NS = not significant (p > 0.05))
p, serum MIG concentration vs G6 Bortezomib 0.3 mg/kg 2× wk ip (G1 3 mg/kg 1× wk ip): NS (NS = not significant (p > 0.05))
p, serum MIG concentration vs G7 CTX 50 mg/kg 1× wk ip (G1 3 mg/kg 1× wk ip): p < 0.001
p, serum MIG concentration vs G8 Dex 1.5 mg/kg 3× wk ip (G1 3 mg/kg 1× wk ip): NS (NS = not significant (p > 0.05))
p, serum MIG concentration vs G9 Vehicle 1× wk ip (G1 3 mg/kg 1× wk ip): NS (NS = not significant (p > 0.05))
p, serum TNFα concentration vs G5 Bortezomib 0.3 mg/kg 1× wk ip (G1 3 mg/kg 1× wk ip): NS (NS = not significant (p > 0.05))
p, serum TNFα concentration vs G6 Bortezomib 0.3 mg/kg 2× wk ip (G1 3 mg/kg 1× wk ip): NS (NS = not significant (p > 0.05))
p, serum TNFα concentration vs G7 CTX 50 mg/kg 1× wk ip (G1 3 mg/kg 1× wk ip): NS (NS = not significant (p > 0.05))
p, serum TNFα concentration vs G8 Dex 1.5 mg/kg 3× wk ip (G1 3 mg/kg 1× wk ip): p <0.001
p, serum TNFα concentration vs G9 Vehicle 1× wk ip (G1 3 mg/kg 1× wk ip): NS (NS = not significant (p > 0.05))
Cytokine IL-12 AUC, percent change vs vehicle (G1 3 mg/kg ip, 1× wk): −83%
Cytokine IL-13 AUC, percent change vs vehicle (G1 3 mg/kg ip, 1× wk): −27%
Cytokine IL-17A AUC, percent change vs vehicle (G1 3 mg/kg ip, 1× wk): −41%
Cytokine IP-10 AUC, percent change vs vehicle (G1 3 mg/kg ip, 1× wk): +17%
Cytokine MIG AUC, percent change vs vehicle (G1 3 mg/kg ip, 1× wk): −55%
Cytokine TNFα AUC, percent change vs vehicle (G1 3 mg/kg ip, 1× wk): −61%
serum IL-12p40/p70 decrease vs vehicle (G1: 3 mg/kg ip once per week): 83%
p, serum IL-12p40/p70 concentration vs G5 Bortezomib 0.3 mg/kg 1× wk ip (G2 3 mg/kg 2× wk ip): NS (NS = not significant (p > 0.05))
p, serum IL-12p40/p70 concentration vs G6 Bortezomib 0.3 mg/kg 2× wk ip (G2 3 mg/kg 2× wk ip): NS (NS = not significant (p > 0.05))
p, serum IL-12p40/p70 concentration vs G7 CTX 50 mg/kg 1× wk ip (G2 3 mg/kg 2× wk ip): NS (NS = not significant (p > 0.05))
p, serum IL-12p40/p70 concentration vs G8 Dex 1.5 mg/kg 3× wk ip (G2 3 mg/kg 2× wk ip): NS (NS = not significant (p > 0.05))
p, serum IL-12p40/p70 concentration vs G9 Vehicle 1× wk ip (G2 3 mg/kg 2× wk ip): p < 0.01
p, serum IL-13 concentration vs G5 Bortezomib 0.3 mg/kg 1× wk ip (G2 3 mg/kg 2× wk ip): NS (NS = not significant (p > 0.05))
p, serum IL-13 concentration vs G6 Bortezomib 0.3 mg/kg 2× wk ip (G2 3 mg/kg 2× wk ip): NS (NS = not significant (p > 0.05))
p, serum IL-13 concentration vs G7 CTX 50 mg/kg 1× wk ip (G2 3 mg/kg 2× wk ip): P < 0.001
p, serum IL-13 concentration vs G8 Dex 1.5 mg/kg 3× wk ip (G2 3 mg/kg 2× wk ip): NS (NS = not significant (p > 0.05))
p, serum IL-13 concentration vs G9 Vehicle 1× wk ip (G2 3 mg/kg 2× wk ip): NS (NS = not significant (p > 0.05))
p, serum IL-17A concentration vs G5 Bortezomib 0.3 mg/kg 1× wk ip (G2 3 mg/kg 2× wk ip): NS (NS = not significant (p > 0.05))
p, serum IL-17A concentration vs G6 Bortezomib 0.3 mg/kg 2× wk ip (G2 3 mg/kg 2× wk ip): NS (NS = not significant (p > 0.05))
p, serum IL-17A concentration vs G7 CTX 50 mg/kg 1× wk ip (G2 3 mg/kg 2× wk ip): p < 0.001
p, serum IL-17A concentration vs G8 Dex 1.5 mg/kg 3× wk ip (G2 3 mg/kg 2× wk ip): NS (NS = not significant (p > 0.05))
p, serum IL-17A concentration vs G9 Vehicle 1× wk ip (G2 3 mg/kg 2× wk ip): NS (NS = not significant (p > 0.05))
p, serum IP-10 concentration vs G5 Bortezomib 0.3 mg/kg 1× wk ip (G2 3 mg/kg 2× wk ip): NS (NS = not significant (p > 0.05))
